Series [1] in a line: βHB blood plasma concentration after 18 g βHB in microbeads or free (Example 3 cross-over trial). It counts as in vivo, human. As to conditions: n=10. From the text:
A dose of βHB contained in microbeads was 20 g of microbeads containing a mix of 50% R-3-hydroxybutyrate mineral salts (Na/Ca/K/Mg Blend 1:1:1:2) and 50% R-3-hydroxybutyric acid (βHB formulation). In particular, said βHB formulation was enriched in pockets dispersed throughout a polymerized yellow pea protein matrix of the microbead particles and constituted approximately 89 to 90% of the weight of the microbead. Thus, the βHB formulation comprised in said dose was about 18 g, in particular about 17.8 g.
The dose of non-enclosed (free) βHB was also about 18 g, in particular about 17.8 g, and the dose of empty microbeads was about 2 g, in particular about 2.2 g. Thus, the free βHB and empty microbeads were direct controls of the composition comprising βHB contained in microbeads.
For administration, one dose was suspended in 250 ml of lemon-flavored non-caloric water.
Participants arrived at the laboratory between 7.30 and 9.00 after an overnight fast, and provided a urine sample for hydration assessment (PEN Refractometer, Atago Instruments). Next, a fasting blood sample was taken via a cannula inserted into a superficial forearm vein for serial blood sampling. After providing a “fasting” blood sample, participants ingested a 250 mL lemon flavored non-caloric water drink wherein the 18 g dose of a microbead comprising the βHB formulation was suspended. After supplementation, baseline determinations tests were repeated for comparison between the pre- and post-supplementation periods. Every 30 min for three hours after ingestion, a blood sample was taken. After 3 hours, a blood sample was taken at 1-hour intervals. After 8 hours, a blood sample was taken at 2-hour intervals. Participants remained in the lab at quiet rest throughout this time period and were permitted to use entertainment headsets and the digital library and were allowed make short walks outside. […] The blood samples were, at least for the determination of AcAc levels, directly analyzed within 2 hours (or otherwise stored at −80° C. before analysis). […]

Series [2] is described as follows: Glucose blood plasma levels, Example 3 trial. As to conditions: about 18 g βHB formulation; snack provided at 6 h; n=10. In kind it is in vivo, human. Here is the method: Participants arrived at the laboratory between 7.30 and 9.00 after an overnight fast, and provided a urine sample for hydration assessment (PEN Refractometer, Atago Instruments). Next, a fasting blood sample was taken via a cannula inserted into a superficial forearm vein for serial blood sampling. After providing a “fasting” blood sample, participants ingested a 250 mL lemon flavored non-caloric water drink wherein the 18 g dose of a microbead comprising the βHB formulation was suspended. After supplementation, baseline determinations tests were repeated for comparison between the pre- and post-supplementation periods. Every 30 min for three hours after ingestion, a blood sample was taken. After 3 hours, a blood sample was taken at 1-hour intervals. After 8 hours, a blood sample was taken at 2-hour intervals. Participants remained in the lab at quiet rest throughout this time period and were permitted to use entertainment headsets and the digital library and were allowed make short walks outside. Participants were offered some small snack 6 hours after consumption of the prototype drink which they could choose from low caloric yoghurts, muesli bars and low caloric fruit juices. […] The blood samples were, at least for the determination of AcAc levels, directly analyzed within 2 hours (or otherwise stored at −80° C. before analysis). […]

For series [3] the following is noted: in vivo.
Description: (§1) The participants went to the visits A, B and C in a randomized order.
(§2) The experimental setup allowed to directly determine the physiological effects of ingesting βHB enclosed in microbeads compared to standard non-enclosed βHB. To distinguish the effects of βHB from effects of the enclosing material, i.e. the pea protein, participants have also ingested empty microbeads on one trial day.
Series [4] is described as follows: Tolerability of βHB, Example 3 trial. The settings on record: about 18 g dose.
Description: as §1, §2
The mark [5] stands for this setting: about 18 g βHB formulation oral.

Where only a bound is given, the exact number is not on record here.

Turning to `C[C@@H](O)CC(=O)O` [free βHB, R-3-hydroxybutyric acid], in series [1] (about 18 g βHB formulation oral in 250 ml lemon-flavored water, first measurement time-point), the “average plasma βHB concentration at peak” value amounted to 1.5 mM. In series [1] (setting [5]), the “time within which plasma βHB concentration dropped to baseline levels” value is at most 2 h and the “time-point of peak average plasma βHB concentration” value was determined as 0.5 h. In addition, the “blood glucose levels upon ingestion” value in series [2] is recorded as “not altered for at least 4 hours”. Further, in series [3], the “tolerability of the dose” value is given as “poorly tolerated”. In addition, in series [4] (of 10 participants), the “participants expressing mild nausea” value is on record as 4 participants; the “participants expressing severe discomfort and sickness” value was found to be 3 participants. Moreover, the “participants reporting gastrointestinal distress (stomach cramping, upset, nausea, bloating, diarrhea)” value in series [4] (within the first hour upon ingestion) is listed as 7 of 10 participants.

The values are drawn from patent US20220257546A1, “KETONE BODIES ENCLOSED IN MICROBEADS” (Ketoswiss AG, priority 2019, published 2022).
